The text below walks through data of US11352352B2, “Aminopyrimidine compound, preparation method therefor and use thereof” (BEIJING ADAMADLE BIOTECHNOLOGY LIMITED LIABILITY COMPANY, priority 2017, dated 2022).

Common to all, as to assay: Cell proliferation inhibition experiment, CellTiter-Glo (CTG) method
Common to all, as to format: cell-based
For orientation: Cellular ATP, detected with luciferase, serves as a proxy for viable cell number.

One assay concerns NCI-H1975. The settings on record: for IC50: Homo sapiens, NCI-H1975, 72 h, NCI-H1975 cells, CTG, 3 days; for A-431/NCI-H1975 Selectivity: ratio of A-431 IC50 to NCI-H1975 IC50. The gist of the method: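 NCI-H1975 cells with viability above 90% by trypan blue were seeded at 90 μL per well in black 96-well plates and incubated overnight at 37° C., 5% CO2. Compounds were added at nine concentrations in triplicate, and viability was measured with CellTiter-Glo luminescence on EnVision. IC50 came from non-linear S-curve fitting in GraphPad Prism 5.0.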

In a further assay the test system is PC-9. The following applies: PC-9 cells, 3 days. The gist of the method: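 Cells in log-phase growth (viability above 90% by trypan blue) were seeded at 90 μL per well in black-walled, clear-bottom 96-well plates and incubated overnight at 37° C., 5% CO2. A T0 plate was read the next day. Test compounds were added at nine concentrations in triplicate with a solvent control. Viability was measured by CellTiter-Glo luminescence on EnVision, and IC50 came from non-linear S-curve fitting in GraphPad Prism 5.0.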

A further assay relates to A-431. The following applies: A-431 cells, 3 days. The gist of the method:
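Log-phase cells (viability >90%) were plated and incubated overnight, then dosed in triplicate across nine 3-fold concentrations. The top dose was 30 μM on A-431 and 1.111 μM on NCI-H1975 and PC-9. Survival after 3 days was measured by CellTiter-Glo and IC50 derived by non-linear regression.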

What is called IC50 is the point on the concentration scale where inhibition reaches its midpoint. A low value points to inhibition by little substance.

Consider `C=CC(=O)Nc1cc(Nc2cc(-c3ccc4c(cnn4C)c3)ncn2)c(OCC)cc1N(C)CCN(C)C(C)C` [compound 139], for which the IC50 came to 43.1 nM in the assay on NCI-H1975; 57.9 nM in the assay on PC-9 (Homo sapiens, PC-9, 72 h); 1160 nM with A-431 (Homo sapiens, A-431, 72 h). Moreover, in the assay with NCI-H1975, the “A-431/NCI-H1975 Selectivity” value is reported as 26.8.

In the case of `C=CC(=O)Nc1cc(Nc2cc(-c3ccc4c(cnn4C)c3)ncn2)c(OCC)cc1N(C)CCN(C)CC` [compound 140], the IC50 with NCI-H1975 worked out at 11.7 nM; in the assay on PC-9 (Homo sapiens, PC-9, 72 h), 13.8 nM; with A-431 (Homo sapiens, A-431, 72 h), 987 nM. For the same compound, in the assay on NCI-H1975, the “A-431/NCI-H1975 Selectivity” value was 84.4.

With `C=CC(=O)Nc1cc(Nc2cc(-c3ccc4c(cnn4C)c3)ncn2)c(OC(F)F)cc1N(C)CCN(C)CC` [compound 141], the IC50 in the assay on NCI-H1975 was 8.4 nM; with PC-9 (Homo sapiens, PC-9, 72 h), 23.1 nM; with A-431 (Homo sapiens, A-431, 72 h) it was 539 nM. Besides, the “A-431/NCI-H1975 Selectivity” value in the assay with NCI-H1975 was found to be 64.2.

`C=CC(=O)Nc1cc(Nc2cc(-c3ccc4c(cnn4C)c3)ncn2)c(OC)cc1N(C)C1CCN(C(C)C)CC1` [compound 142]: the IC50 with NCI-H1975 was determined as 24.5 nM; in the assay on PC-9 (Homo sapiens, PC-9, 72 h), 32.6 nM; in the assay on A-431 (Homo sapiens, A-431, 72 h), 968 nM. For the same compound, the “A-431/NCI-H1975 Selectivity” value in the assay on NCI-H1975 was 39.5.

In the case of `C=CC(=O)Nc1cc(Nc2cc(-c3ccc4c(cnn4C)c3)ncn2)c(OC)cc1N1CCN(C2CC2)CC1` [compound 143], the IC50 turned out to be 51.6 nM with NCI-H1975; 23.5 nM with PC-9 (Homo sapiens, PC-9, 72 h); 988 nM with A-431 (Homo sapiens, A-431, 72 h). For the same compound, the “A-431/NCI-H1975 Selectivity” value in the assay on NCI-H1975 is on record as 19.2.

As for `C=CC(=O)Nc1cc(Nc2cc(-c3ccc4c(cnn4C)c3)ncn2)c(OC(F)F)cc1N1CCN(CCOC)CC1` [compound 145], the IC50 with NCI-H1975 stood at 37.1 nM; in the assay on PC-9 (Homo sapiens, PC-9, 72 h), 33.7 nM; with A-431 (Homo sapiens, A-431, 72 h), 1460 nM. In addition, in the assay with NCI-H1975, the “A-431/NCI-H1975 Selectivity” value came to 39.3.

On to `C=CC(=O)Nc1cc(Nc2cc(-c3ccc4c(cnn4C)c3)ncn2)c(OC(F)F)cc1N1CCC(N2C[C@@H](C)N(C)[C@@H](C)C2)CC1` [compound 146], for which the IC50 turned out to be 10.2 nM with NCI-H1975; 14.9 nM in the assay on PC-9 (Homo sapiens, PC-9, 72 h); 800 nM in the assay with A-431 (Homo sapiens, A-431, 72 h). The “A-431/NCI-H1975 Selectivity” value in the assay with NCI-H1975 came out at 78.5.

As to `C=CC(=O)Nc1cc(Nc2cc(-c3ccc4c(cnn4C)c3)ncn2)c(OC(F)F)cc1N1CCC(N2CCN(C(C)C)CC2)CC1` [compound 147], the IC50 in the assay on NCI-H1975 was determined as 18.4 nM; with PC-9 (Homo sapiens, PC-9, 72 h) it was 24.7 nM; in the assay on A-431 (Homo sapiens, A-431, 72 h), 978 nM. For the same compound, the “A-431/NCI-H1975 Selectivity” value with NCI-H1975 came to 53.2.

Consider `C=CC(=O)Nc1cc(Nc2cc(-c3ccc4c(cnn4C)c3)ncn2)c(OC(F)F)cc1N1CCC(N2C[C@@H](C)O[C@@H](C)C2)CC1` [compound 148], for which the IC50 in the assay with NCI-H1975 is 28.7 nM; with PC-9 (Homo sapiens, PC-9, 72 h), 31.9 nM; in the assay with A-431 (Homo sapiens, A-431, 72 h), 1350 nM. For the same compound, the “A-431/NCI-H1975 Selectivity” value with NCI-H1975 is given as 46.9.

Regarding `C=CC(=O)Nc1cc(Nc2cc(-c3ccc4c(cnn4C)c3)ncn2)c(OC(F)F)cc1N1CCN(CC2CC2)CC1` [compound 149], the IC50 in the assay with NCI-H1975 turned out to be 28.4 nM; with PC-9 (Homo sapiens, PC-9, 72 h) it was 674 nM; in the assay on A-431 (Homo sapiens, A-431, 72 h), 1370 nM. Further, the “A-431/NCI-H1975 Selectivity” value in the assay with NCI-H1975 amounted to 48.2.

Turning to `C=CC(=O)Nc1cc(Nc2cc(-c3ccc4c(cnn4C)c3)ncn2)c(OC(F)F)cc1N1CCC(N2CCCC2)CC1` [compound 150], the IC50 turned out to be 5.3 nM in the assay with NCI-H1975; 19.3 nM with PC-9 (Homo sapiens, PC-9, 72 h); 543 nM in the assay with A-431 (Homo sapiens, A-431, 72 h). Also, the “A-431/NCI-H1975 Selectivity” value in the assay on NCI-H1975 is recorded as 102.5.

For the compound `C=CC(=O)Nc1cc(Nc2cc(-c3ccc4c(cnn4C)c3)ncn2)c(OC(F)(F)F)cc1N(C)CCN(C)C` [compound 151], the IC50 in the assay on NCI-H1975 turned out to be 58.9 nM; in the assay with PC-9 (Homo sapiens, PC-9, 72 h) it was 79.9 nM; with A-431 (Homo sapiens, A-431, 72 h), 2050 nM. For the same compound, in the assay with NCI-H1975, the “A-431/NCI-H1975 Selectivity” value is 34.7.

With `C=CC(=O)Nc1cc(Nc2cc(-c3ccc4c(cnn4C)c3)ncn2)c(OC)cc1N1CCC(N2CCOCC2)CC1` [compound 152], the IC50 with NCI-H1975 came to 23.6 nM; in the assay with PC-9, 43.2 nM; in the assay with A-431 it was 1970 nM. Further, the “A-431/NCI-H1975 Selectivity” value in the assay with NCI-H1975 was 83.3.

Turning to `C=CC(=O)Nc1cc(Nc2cc(-c3ccc4c(cnn4C)c3)ncn2)c(OC(F)F)cc1N1CCN(C2CCOCC2)CC1` [compound 153], the IC50 with NCI-H1975 was 25 nM; with PC-9 (Homo sapiens, PC-9, 72 h), 35.1 nM; in the assay with A-431 (Homo sapiens, A-431, 72 h) it was 1320 nM. Moreover, in the assay with NCI-H1975, the “A-431/NCI-H1975 Selectivity” value is given as 53.0.

Regarding `C=CC(=O)Nc1cc(Nc2cc(-c3ccc4cnn(C)c4c3)ncn2)c(OC)cc1N1C[C@@H](C)N(C)[C@@H](C)C1` [compound 154], the IC50 in the assay on NCI-H1975 came to 34.7 nM; in the assay with PC-9 (Homo sapiens, PC-9, 72 h) it was 36.4 nM; with A-431 (Homo sapiens, A-431, 72 h) it was 1400 nM.
